Results published in the supplement of paper PMC11451515.

System: P12-Ichikawa
Assay: cell viability relative to DMSO control; higher = less cytotoxic
Settings: 48 h
How it was run: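 Viability was expressed as a per-plate percentage of DMSO wells, with cell-free wells as background. Leukemia cells (NOMO1 or SEM at 500 cells/well, P12-Ichikawa at 1000 cells/well) were adapted for at least four passages in each medium and seeded in 1536-well plates (5 μl). Library compounds in DMSO were pin-dosed over an 11-point threefold series from 47 μM to 0.79 nM, and CellTiter-Glo One luminescence was read after 48 h at 37°C.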

[1] = HPLM + 10% dialyzed FBS, 0.000781 µM
[2] = HPLM + 10% dialyzed FBS, 0.00234 µM
[3] = HPLM + 10% dialyzed FBS, 0.00702 µM
[4] = HPLM + 10% dialyzed FBS, 0.0211 µM
[5] = HPLM + 10% dialyzed FBS, 0.0632 µM
[6] = HPLM + 10% dialyzed FBS, 0.19 µM
[7] = HPLM + 10% dialyzed FBS, 0.569 µM
[8] = HPLM + 10% dialyzed FBS, 1.71 µM
[9] = HPLM + 10% dialyzed FBS, 5.12 µM
[10] = HPLM + 10% dialyzed FBS, 15.4 µM
[11] = HPLM + 10% dialyzed FBS, 46.1 µM
[12] = RPMI 5 mM glucose + 10% FBS, 0.000781 µM
[13] = RPMI 5 mM glucose + 10% FBS, 0.00234 µM
[14] = RPMI 5 mM glucose + 10% FBS, 0.00702 µM
[15] = RPMI 5 mM glucose + 10% FBS, 0.0211 µM
[16] = RPMI 5 mM glucose + 10% FBS, 0.0632 µM
[17] = RPMI 5 mM glucose + 10% FBS, 0.19 µM
[18] = RPMI 5 mM glucose + 10% FBS, 0.569 µM
[19] = RPMI 5 mM glucose + 10% FBS, 1.71 µM
[20] = RPMI 5 mM glucose + 10% FBS, 5.12 µM
[21] = RPMI 5 mM glucose + 10% FBS, 15.4 µM
[22] = RPMI 5 mM glucose + 10% FBS, 46.1 µM
[23] = RPMI 5 mM glucose + 10% dialyzed FBS, 0.000781 µM
[24] = RPMI 5 mM glucose + 10% dialyzed FBS, 0.00234 µM
[25] = RPMI 5 mM glucose + 10% dialyzed FBS, 0.00702 µM
[26] = RPMI 5 mM glucose + 10% dialyzed FBS, 0.0211 µM
[27] = RPMI 5 mM glucose + 10% dialyzed FBS, 0.0632 µM
[28] = RPMI 5 mM glucose + 10% dialyzed FBS, 0.19 µM
[29] = RPMI 5 mM glucose + 10% dialyzed FBS, 0.569 µM
[30] = RPMI 5 mM glucose + 10% dialyzed FBS, 1.71 µM
[31] = RPMI 5 mM glucose + 10% dialyzed FBS, 5.12 µM
[32] = RPMI 5 mM glucose + 10% dialyzed FBS, 15.4 µM
[33] = RPMI 5 mM glucose + 10% dialyzed FBS, 46.1 µM

Structure (SMILES)	cell viability [1] [%]	cell viability [2] [%]	cell viability [3] [%]	cell viability [4] [%]	cell viability [5] [%]	cell viability [6] [%]	cell viability [7] [%]	cell viability [8] [%]	cell viability [9] [%]	cell viability [10] [%]	cell viability [11] [%]	cell viability [12] [%]	cell viability [13] [%]	cell viability [14] [%]	cell viability [15] [%]	cell viability [16] [%]	cell viability [17] [%]	cell viability [18] [%]	cell viability [19] [%]	cell viability [20] [%]	cell viability [21] [%]	cell viability [22] [%]	cell viability [23] [%]	cell viability [24] [%]	cell viability [25] [%]	cell viability [26] [%]	cell viability [27] [%]	cell viability [28] [%]	cell viability [29] [%]	cell viability [30] [%]	cell viability [31] [%]	cell viability [32] [%]	cell viability [33] [%]
C[C@@H]1CC[C@@]2(CC[C@]3(C)\C(=C/C[C@@H]4[C@@]5(C)C[C@@H](O)[C@H](O)[C@@](C)(CO)[C@@H]5CC[C@@]34C)[C@@H]2[C@H]1C)C(O)=O	109	113	108	122	121	120	116	116	122	121	112	116	123	113	116	119	121	126	131	123	119	110	109	113	114	109	121	118	128	121	125	110	123
CC(C)[C@H]1C(=O)N[C@H](CO)Cc2c[nH]c3cccc(c23)N1C	87.3	96	98.3	108	110	99.2	92.2	88.1	74.2	83.9	88.8	91.5	98.8	104	105	110	98.9	76.9	75.4	63.7	65.4	74.5	87	99.7	97.9	101	107	90.3	79.1	70.6	58	64.5	65.3
CC1=CC/2=C(C=C1C)N(C[C@@H](O)[C@@H](O)[C@@H](O)CO)C/3=N/C(=O)NC(=O)C3=N2	118	123	117	116	120	129	113	109	115	103	107	–	–	–	–	–	–	–	–	–	–	–	122	122	121	132	123	121	118	113	108	105	102
NC[C@H](O)c1ccc(O)c(O)c1	98.9	100	99	103	98.8	102	97.4	92.4	92.8	92.6	83.5	101	99.5	94.1	98.9	105	96.7	97.6	92.3	91.2	90.2	84.4	89.9	96	99.9	88.1	96.1	97.6	86.3	93.6	92	86.5	81.5
C[C@]12CC[C@H]3[C@@H](CC[C@@]45O[C@@H]4C(O)=C(C#N)C[C@]35C)[C@@H]1CC[C@@H]2O	108	116	113	116	125	116	111	115	113	107	20.9	101	103	108	120	108	114	121	122	116	108	12.3	101	103	113	116	114	114	111	115	109	105	16.7
Cc1cc(/C=c2/sc3nc4ccccc4n3c2=O)c(C)n1-c1ccccc1	121	127	123	119	123	119	128	125	122	113	112	–	–	–	–	–	–	–	–	–	–	–	110	126	116	132	126	121	124	124	105	112	120
CCCC[S+](=N)([O-])CCC(N)C(=O)O (centres undefined)	113	124	127	126	132	137	135	139	131	128	6.85	–	–	–	–	–	–	–	–	–	–	–	–	–	–	–	–	–	–	–	–	–	–
COc1cc(N2CCN(C)CC2)ccc1Nc1nc(N)c(C(=O)c2c(Cl)cccc2Cl)s1	111	118	106	113	111	108	112	103	105	96.2	50.2	119	117	125	110	114	111	115	105	101	99.5	50.5	120	120	131	117	112	117	119	114	115	101	54.3
Clc1ccc(CCC(Cn2ccnc2)Sc2c(Cl)cccc2Cl)cc1 (centres undefined)	92.8	92.5	96	90.2	93.9	102	101	94.7	91.9	91.2	91.5	90	94.6	96	103	99.8	94.8	87.8	96	91.1	91.9	63.2	81.1	72.8	84.4	95.1	84.6	86.4	90.1	83.7	89.1	90.1	64.7
c1ccc2c(CN3CCNCC3)cccc2c1	111	112	113	108	113	112	109	116	118	111	35	106	104	102	112	111	107	112	111	112	110	26.4	107	108	109	107	114	115	117	110	118	119	41.1
COc1cccc(N(C)C(=S)Oc2ccc3c(c2)CCCC3)n1	97.6	97.3	103	106	111	108	112	107	97.6	107	101	96.6	103	99.1	103	104	92.2	107	104	96.9	95.6	88.1	94.9	86.6	104	96.9	99.7	94.2	101	92.1	96.6	94.8	81.1
N#Cc1cc(NC(=O)Nc2nnc(-c3ccncc3)s2)ccc1-c1cn[nH]c1	117	125	122	125	120	116	122	115	113	106	110	120	127	125	126	110	116	119	113	119	112	109	121	126	117	124	126	126	128	124	115	112	105
CCC[C@H](Nc1nc(-c2ccc(NC(=O)NCC)c(OC)c2)ncc1C)c1cccnc1	114	115	117	120	22.3	11.4	9.4	8.46	7.94	7.62	6.68	125	137	123	136	21.8	12.7	11.7	8.52	8.89	7.34	6.34	120	125	122	124	29.6	18.1	17.2	10.4	11	10.1	7.87
CC(C)[C@H](O)C(=O)N[C@@H](C)C(=O)N[C@@H]1C(=O)N(C)CCc2ccccc21	112	114	111	112	115	108	102	90.7	110	91.4	90.7	114	123	122	109	119	116	104	113	106	97.7	105	116	113	113	105	96.6	106	102	99.6	94.6	98.8	92.7
CC(C)(Sc1cc(C(C)(C)C)c(O)c(C(C)(C)C)c1)Sc1cc(C(C)(C)C)c(O)c(C(C)(C)C)c1	88.5	84.4	90	96.2	94.1	91	95.7	89.4	97	99.7	99.9	80.2	77.9	87.2	85.6	83.9	92.8	93.7	85.4	79.2	92.8	92.8	79.2	85.3	82.3	85.6	87.8	87.6	84.7	87.2	81.3	81.2	88.4
O=C(Nc1ccccc1)Nc1ccc(-c2ccc(C(=O)[C@@H]3CCC[C@H]3C(=O)O)cc2)cc1	105	102	117	113	113	122	96.7	105	90.8	87	79	110	117	100	113	116	114	118	102	92.8	73	86.2	123	121	116	104	122	122	115	114	89.6	83.9	83.1
